According to patent US4877785A, “Non-peptidyl beta-succinamidoacyl aminodiols as anti-hypertensive agents” (G. D. Searle & Co., priority 1987, dated 1989):
Where a SMILES comes first, the peptide text is derived from it. [ ]: non-standard residue; d: D form. The star is where a group is joined. Sta = CC(C)C[C@H](N)[C@@H](O)CC(=O)O; Isovaleryl = CC(C)CC(=O)*

What was measured:
[1] = system: hog renin; details: after injection of hog renin into nephrectomized rats; cited from earlier work
[2] = system: cathepsin D; details: cited from earlier work
[3] = system: pepsin; details: cited from earlier work
[4] = system: renin; details: cited from earlier work
[5] = biological target: T1, Human renin (Homo sapiens, UniProt P00797); assay: human renin inhibition test in vitro (angiotensin I determined by radioimmunoassay); type: biochemical; details: pH 7.4, 37° C., two hours, human plasma
T1 construct: purchased National Institute for Biological Standards, London
T1 sequence (P00797 67-406): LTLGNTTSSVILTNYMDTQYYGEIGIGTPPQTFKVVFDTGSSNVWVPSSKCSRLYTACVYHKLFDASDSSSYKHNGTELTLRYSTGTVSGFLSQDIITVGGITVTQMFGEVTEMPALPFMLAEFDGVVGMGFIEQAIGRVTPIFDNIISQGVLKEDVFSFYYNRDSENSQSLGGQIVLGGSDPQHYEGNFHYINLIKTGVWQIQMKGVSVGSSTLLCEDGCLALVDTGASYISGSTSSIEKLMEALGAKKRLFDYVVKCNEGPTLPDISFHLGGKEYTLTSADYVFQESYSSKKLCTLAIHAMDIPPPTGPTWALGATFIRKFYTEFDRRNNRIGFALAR
Protocol: Compounds of Formula I were evaluated as inhibitors of human renin in an in vitro assay, as follows: This human renin inhibition test has been previously described in detail [Papaioannou, et al., Clinical and Experimental Hypertension, A7(9), 1243-1257 (1985)]. Human renin was obtained from the National Institute for Biological Standards, London. In a total volume of 0.25 mL 100 mM Tris-acetate buffer at pH 7.4, 25×10^-6 Goldblatt units of renin, 0.05 mL of plasma from human volunteers taking oral contraceptives, 6.0 mM sodium EDTA, 2.4 mM phenylmethyl sulfonyl fluoride, 1.5 mM 8-hydroxyquinoline, 0.4 mg/mL BSA, and 0.024 mg/mL neomycin sulfate were incubated for two hours at 37° C. in the presence or absence of renin inhibitors. The produced angiotensin I was determined by radioimmunoassay (New England Nuclear kit). Compounds of formula I to be assayed were solubilized in either ethyl alcohol or DMSO and diluted with 100 mM Tris-acetate buffer at pH 7.4 to the appropriate concentration. The final concentration of organic solvent in the reaction mixture was less than 1%. Control incubations at 37° C. were used to correct for effects of organic solvent on renin activity.

IC50 [5] [nM] | SMILES | reduction of blood pressure in vivo [1] | inhibition of cathepsin D [2] | inhibition of pepsin [3] | inhibition of renin [4]
– | CC(C)CC(=O)N[C@H](C(=O)N[C@H](C(=O)N[C@@H](CC(C)C)[C@@H](O)CC(=O)N[C@@H](C)C(=O)N[C@@H](CC(C)C)[C@@H](O)CC(=O)O)C(C)C)C(C)C [pepstatin] (Isovaleryl-VV[Sta]A[Sta]-OH) | found to reduce blood pressure in vivo | inhibitor | inhibitor | inhibitor
330 | CC(C)C[C@H](O)[C@H](O)[C@H](CC1CCCCC1)NC(=O)C(C)CNC(=O)C(CC(=O)N1CCOCC1)Cc1cccc2ccccc12 (single isomer, unassigned; isomer a) [Example 11] | – | – | – | –
1000 | CC(C)C[C@H](O)[C@H](O)[C@H](CC1CCCCC1)NC(=O)C(C)CNC(=O)C(CC(=O)N1CCOCC1)Cc1cccc2ccccc12 (single isomer, unassigned; isomer b) [Example 13] | – | – | – | –
